Test results published in patent publication US20080227792A1, “3,4-Dihydro-1H-Isoquinoline-2-Carboxylic Acid 5-Aminopyridin-2-Yl Esters” (Novo Nordisk A/S, priority 2005, published 2008).

Columns and labels:
[1] = target: T1, hormone sensitive lipase (HSL) (Homo sapiens, UniProt Q05469); experiment: 3190.2: Assay for determination of IC50 value for the inhibition of hormone sensitive lipase; assay type: biochemical; conditions: fluorochrome-labeled triacylglyceride substrate; 30 min pre-incubation at 25° C., 120 min incubation at 37° C.; 4PL fit
T1 construct: made in house
T1 sequence (Q05469 1-1076): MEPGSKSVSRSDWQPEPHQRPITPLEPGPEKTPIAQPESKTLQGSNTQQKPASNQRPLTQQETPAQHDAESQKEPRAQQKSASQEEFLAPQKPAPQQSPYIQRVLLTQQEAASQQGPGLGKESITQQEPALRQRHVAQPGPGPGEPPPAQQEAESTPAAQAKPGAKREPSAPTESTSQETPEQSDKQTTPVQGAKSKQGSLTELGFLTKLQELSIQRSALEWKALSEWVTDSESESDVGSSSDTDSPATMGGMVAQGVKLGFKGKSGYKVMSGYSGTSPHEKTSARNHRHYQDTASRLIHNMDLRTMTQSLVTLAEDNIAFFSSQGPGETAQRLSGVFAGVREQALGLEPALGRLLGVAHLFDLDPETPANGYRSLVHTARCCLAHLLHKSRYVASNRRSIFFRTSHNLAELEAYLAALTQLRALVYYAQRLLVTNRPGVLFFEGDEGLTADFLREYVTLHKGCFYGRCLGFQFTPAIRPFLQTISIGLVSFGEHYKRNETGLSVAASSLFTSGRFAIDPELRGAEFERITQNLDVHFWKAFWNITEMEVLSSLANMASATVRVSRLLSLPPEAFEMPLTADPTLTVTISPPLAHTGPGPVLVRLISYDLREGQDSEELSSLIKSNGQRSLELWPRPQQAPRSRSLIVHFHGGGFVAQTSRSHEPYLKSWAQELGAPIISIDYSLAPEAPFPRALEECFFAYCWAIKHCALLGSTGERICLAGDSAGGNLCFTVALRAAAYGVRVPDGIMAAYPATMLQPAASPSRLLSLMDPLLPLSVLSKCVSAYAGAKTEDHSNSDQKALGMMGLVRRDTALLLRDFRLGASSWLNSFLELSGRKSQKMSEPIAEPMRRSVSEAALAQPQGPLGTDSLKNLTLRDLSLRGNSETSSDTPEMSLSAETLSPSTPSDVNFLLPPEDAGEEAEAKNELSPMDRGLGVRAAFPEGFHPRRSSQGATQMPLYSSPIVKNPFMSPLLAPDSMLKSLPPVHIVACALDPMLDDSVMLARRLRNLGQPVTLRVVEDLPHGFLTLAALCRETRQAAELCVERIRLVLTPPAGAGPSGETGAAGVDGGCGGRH
Description: Materials. The Hormone-sensitive lipase was provided by Dr. Cecilia Holm, from Lund University Sweden or produced and purified by Novo Nordisk (NN) using the reagents and protocols used by Dr. Holm. The substrates used are: ^3H-labeled triolein (TO) from Amersham, Buckinghamshire, U.K. cat o. TRA191; 5-20 Ci/mmol dissolved in toluene, triolein (Sigma, Cat. No. T-1740), fluorochrome-labeled triacylglyceride (cis-octadec-9-enoic acid 2-[12-(7-nitrobenzo[1,2,5]oxadiazol-4-ylamino)-dodecanoyloxy]-1-cis-octadec-9-enoyloxymethylethyl ester) prepared by Novo Nordisk (NN) by conventional methods, and 1,3-(di[^3H]-stearin), 2-(PEG-Biotin)glycerol prepared in collaboration with Amersham Pharmacia Biotech, UK and described in WO 01/073442. Phosphatidyl choline (PC) and phosphatidyl inositol (PI) are from Sigma (St Luis Mo. cat. Nos. P-3556 and P-5954, respectively). All other reagents are of commercial grade and obtained from various commercial sources.
3190.2: Assay for determination of IC50 value for the inhibition of hormone sensitive lipase by compound. Standard concentrations of compound are 100 μM and 5-fold dilutions (initial concentration corresponding to 10 μM final concentration and 5-fold).
A lipid emulsion with fluorochrome-labeled triacylglyceride and phospholipid is used as substrate with a standard concentration of highly purified HSL (12 μg/mL initial concentration corresponding to 600 ng/mL final concentration). BSA is added as product acceptor. The transfer of the fluorochrome from the lipid phase to the water (BSA) phase changes the fluorescent properties of the fluorochrome. The changes can be monitored on a fluorimeter with an excitation wavelength of 450 nm and an emission wavelength of 545 nm.
Compound and HSL (20 μL compound, 10 μL enzyme and 70 μL PED-BSA buffer) is pre-incubated for 30 min at 25° C. before addition of substrate (100 μL). Amount of formed product is measured after 120 min incubation at 37° C.
Results are given as IC50 values after 4PL fit of obtained activity data.

Structure (SMILES)	IC50 [1] [nM]	melting point [°C]
O=C(Oc1ccc(N2C(=O)CC3(CCCC3)CC2=O)cn1)N1CCc2ccccc2C1 [Example 3, 3,4-Dihydro-1H-isoquinoline-2-carboxylic acid 5-(7,9-dioxo-8-azaspiro[4.5]dec-8-yl)pyridin-2-yl ester]	40	
O=C(Oc1ccc(NC2=NC3(CCCC3)CS2)cn1)N1CCc2ccccc2C1 [Example 4, 3,4-Dihydro-1H-isoquinoline-2-carboxylic acid 5-(3-thia-1-azaspiro[4.4]non-1-en-2-ylamino)-pyridin-2-yl ester]	400	
CC1(C)CC(=O)N(c2ccc(OC(=O)N3CCc4ccccc4C3)nc2)C(=O)C1 [Example 1, 3,4-Dihydro-1H-isoquinoline-2-carboxylic acid 4,4-dimethyl-2,6-dioxo-3,4,5,6-tetrahydro-2H-[1,3′]bi-pyridinyl-6′-yl ester]	400	156 to 158
